Patent US10301284B2, “Therapeutic inhibitory compounds” (LifeSci Pharmaceuticals, Inc., priority 2016, dated 2019)

The compounds below were run against human Plasma Kallikrein (Homo sapiens (Human), UniProt P03952) (assay: In vitro enzyme inhibition of human plasma kallikrein (Pro-Phe-Arg-AMC cleavage)). Details: human plasma kallikrein, PFR-AMC substrate, 37° C.; read-out: hPK IC50.
Format: biochemical
Experimental: The ability of the compounds disclosed herein to inhibit human plasma kallikrein activity was quantified according to the procedures below.
A 10 mM solution of the test compound was made in DMSO. This solution was serially diluted 1:5 in DMSO to yield 2000, 400, 80, 16, 3.2, 0.64, 0.128, 0.0256 and 0.00512 μM compound test solutions. A control tube containing only DMSO is included. 16 μL of each compound test solution was combined with 384 μL of assay buffer (50 mM Tris-HCl pH 7.5, 150 mM NaCl, 0.01% Triton X-100) to yield a “4× test compound buffer stock”.
Separately, a 40 nM solution of human Plasma Kallikrein (Abcam) and a 93.6 μM solution Pro-Phe-Arg-AMC (Bachem) were made using assay buffer. These solutions are hereby referred to as 4×hPK and 2×PFR-AMC, respectively.
60 μL of each 4× test compound buffer stock was combined with 60 μL of 4×hPK to yield 120 μL of “2× test compound buffer stock/2×hPK”. 50 μL was removed from this mixture and placed into duplicate wells on a Microfluor 1Black U-bottom microtiter plate (Thermo Scientific). This plate was incubated for 5 minutes at 37° C. To each well, 50 μL of pre-warmed 2×PFR-AMC was added to start the enzymatic reaction. Cleavage of PFR-AMC was monitored in a Biotek Synergy H4 reader set at 37° C. Readings are taken every 43 seconds for 1 hour. The highest mean velocity over 20 reads (˜15 minutes) is used to calculate the IC50. The IC50 is calculated using the Gen5 (Biotek Instruments).
The ability of the compounds listed in Table 2 to inhibit human plasma kallikrein activity was determined.

Chain of human Plasma Kallikrein (P03952 391-638 limits assumed): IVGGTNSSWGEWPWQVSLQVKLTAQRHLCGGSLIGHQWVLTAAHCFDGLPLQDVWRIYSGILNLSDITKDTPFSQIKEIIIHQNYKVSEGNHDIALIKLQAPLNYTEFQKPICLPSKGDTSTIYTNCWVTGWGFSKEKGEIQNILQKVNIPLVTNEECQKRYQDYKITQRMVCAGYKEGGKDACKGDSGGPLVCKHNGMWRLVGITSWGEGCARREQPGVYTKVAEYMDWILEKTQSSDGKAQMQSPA
Chain of human Plasma Kallikrein (P03952 20-390 partner limits assumed): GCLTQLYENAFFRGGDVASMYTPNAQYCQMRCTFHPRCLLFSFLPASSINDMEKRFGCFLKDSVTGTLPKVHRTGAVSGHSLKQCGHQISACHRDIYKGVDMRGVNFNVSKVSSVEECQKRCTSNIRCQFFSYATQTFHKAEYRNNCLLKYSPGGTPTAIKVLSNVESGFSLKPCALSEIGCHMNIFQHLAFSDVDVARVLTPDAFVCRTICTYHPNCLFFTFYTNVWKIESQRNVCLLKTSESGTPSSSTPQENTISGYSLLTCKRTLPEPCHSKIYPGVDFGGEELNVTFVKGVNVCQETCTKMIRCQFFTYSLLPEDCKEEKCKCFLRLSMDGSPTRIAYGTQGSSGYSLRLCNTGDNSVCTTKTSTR

Row | SMILES | IC50
1 | Cc1cc(N)nc(C)c1CNC(=O)c1cn(Cc2cc(S(C)(=O)=O)c3ncc(Cl)cc3c2)nc1C#N [Example 68, N-((6-amino-2,4-dimethylpyridin-3-yl)methyl)-1-((3-chloro-8-(methylsulfonyl)quinolin-6-yl)methyl)-3-cyano-1H-pyrazole-4-carboxamide] | < 100 nM
2 | Cc1cc(N)nc(C)c1CNC(=O)c1cnn(Cc2cc(F)c3ncc(Cl)cc3c2)c1C#N [Example 70, N-((6-amino-2,4-dimethylpyridin-3-yl)methyl)-1-((3-chloro-8-fluoroquinolin-6-yl)methyl)-5-cyano-1H-pyrazole-4-carboxamide] | > 10000 nM
3 | Cc1cc(N)nc(C)c1CNC(=O)c1cnn(Cc2cc(F)c3ncc(Cl)cc3c2)c1C(N)=O [Example 71, N4-((6-amino-2,4-dimethylpyridin-3-yl)methyl)-1-((3-chloro-8-fluoroquinolin-6-yl)methyl)-1H-pyrazole-4,5-dicarboxamide] | > 10000 nM
4 | Cc1cc(N)nc(C)c1CNC(=O)c1cn(Cc2cc(C(N)=O)c3ncc(Cl)cc3c2)nc1C#N [Example 72, 6-((4-(((6-amino-2,4-dimethylpyridin-3-yl)methyl)carbamoyl)-3-cyano-1H-pyrazol-1-yl)methyl)-3-chloroquinoline-8-carboxamide] | < 100 nM
5 | Cc1cc(N)nc(C)c1CNC(=O)c1nn(Cc2ccc3ncc(Cl)cc3c2)c2ccnc(C#N)c12 [Example 76, N-((6-amino-2,4-dimethylpyridin-3-yl)methyl)-1-((3-chloroquinolin-6-yl)methyl)-4-cyano-1H-pyrazolo[4,3-c]pyridine-3-carboxamide] | < 100 nM
6 | Cc1nc(N)ccc1CNC(=O)c1cn(Cc2ccc3ncc(Cl)cc3c2)nc1C#N [Example 77, N-((6-amino-2-methylpyridin-3-yl)methyl)-1-((3-chloroquinolin-6-yl)methyl)-3-cyano-1H-pyrazole-4-carboxamide] | < 100 nM
7 | Cc1nc(N)ccc1CNC(=O)c1nnc(Cc2ccc3ncc(Cl)cc3c2)o1 [Example 79, N-((6-amino-2-methylpyridin-3-yl)methyl)-5-((3-chloroquinolin-6-yl)methyl)-1,3,4-oxadiazole-2-carboxamide] | 100 to 1000 nM
8 | Cc1cc(N)nc(C)c1CNC(=O)c1cnc(C(=O)c2ccc3ncc(Cl)cc3c2)o1 [Example 80, N-((6-amino-2,4-dimethylpyridin-3-yl)methyl)-2-(3-chloroquinoline-6-carbonyl)oxazole-5-carboxamide] | > 10000 nM
9 | Cc1nc(N)ccc1CNC(=O)c1coc(Cc2ccc3ncc(Cl)cc3c2)n1 [Example 83, N-((6-amino-2-methylpyridin-3-yl)methyl)-2-((3-chloroquinolin-6-yl)methyl)oxazole-4-carboxamide] | 100 to 1000 nM
10 | Cc1nc(N)ccc1CNC(=O)c1ncc(Cc2ccc3ncc(Cl)cc3c2)o1 [Example 84, N-((6-amino-2-methylpyridin-3-yl)methyl)-5-((3-chloroquinolin-6-yl)methyl)oxazole-2-carboxamide] | < 100 nM
11 | Cc1nc(N)ccc1CNC(=O)c1cn(Cc2ccc3ncc(Cl)cc3c2)nc1C [Example 85, N-((6-amino-2-methylpyridin-3-yl)methyl)-1-((3-chloroquinolin-6-yl)methyl)-3-methyl-1H-pyrazole-4-carboxamide] | < 100 nM
12 | Cc1cc(N)nc(C)c1CNC(=O)c1nnc(Cc2cc(C(C)(C)O)c3ncc(Cl)cc3c2)o1 [Example 86, N-((6-amino-2,4-dimethylpyridin-3-yl)methyl)-5-((3-chloro-8-(2-hydroxypropan-2-yl)quinolin-6-yl)methyl)-1,3,4-oxadiazole-2-carboxamide] | < 100 nM
13 | Cc1cc(N)nc(C)c1CNC(=O)c1oc(Cc2ccc3ncc(Cl)cc3c2)nc1C#N [Example 87, N-((6-amino-2,4-dimethylpyridin-3-yl)methyl)-2-((3-chloroquinolin-6-yl)methyl)-4-cyanooxazole-5-carboxamide] | < 100 nM
14 | Cc1nc(N)ccc1CNC(=O)c1oc(Cc2ccc3ncc(Cl)cc3c2)nc1C#N [Example 88, N-((6-amino-2-methylpyridin-3-yl)methyl)-2-((3-chloroquinolin-6-yl)methyl)-4-cyanooxazole-5-carboxamide] | 100 to 1000 nM
15 | Cc1cc(N)nc(C)c1CNC(=O)c1cnc(Cc2ccc3ncc(Cl)cc3c2)o1 [Example 89, N-((6-amino-2,4-dimethylpyridin-3-yl)methyl)-2-((3-chloroquinolin-6-yl)methyl)oxazole-5-carboxamide] | < 100 nM
16 | Cc1nc(N)ccc1CNC(=O)c1cnc(Cc2ccc3ncc(Cl)cc3c2)o1 [Example 90, N-((6-amino-2-methylpyridin-3-yl)methyl)-2-((3-chloroquinolin-6-yl)methyl)oxazole-5-carboxamide] | < 100 nM
17 | Cc1cc(N)nc(C)c1CNC(=O)c1cn(Cc2ccc3ncc(Cl)cc3c2)nc1C(F)F [Example 91, N-((6-amino-2,4-dimethylpyridin-3-yl)methyl)-1-((3-chloroquinolin-6-yl)methyl)-3-(difluoromethyl)-1H-pyrazole-4-carboxamide] | < 100 nM
18 | Cc1cc(N)nc(C)c1CNC(=O)c1cn(Cc2ccc3ncc(Cl)cc3c2)nc1CO [Example 92, N-((6-amino-2,4-dimethylpyridin-3-yl)methyl)-1-((3-chloroquinolin-6-yl)methyl)-3-(hydroxymethyl)-1H-pyrazole-4-carboxamide] | < 100 nM
19 | Cc1cc(N)nc(C)c1CNC(=O)c1cn(Cc2ccc3ncc(Cl)cc3c2)nc1CF [Example 93, N-((6-amino-2,4-dimethylpyridin-3-yl)methyl)-1-((3-chloroquinolin-6-yl)methyl)-3-(fluoromethyl)-1H-pyrazole-4-carboxamide] | < 100 nM
20 | Cc1cc(N)nc(C)c1CNC(=O)c1cn(Cc2ccc3ncc(Cl)cc3c2)nc1C(C)O (stereo not drawn) [Example 94, N-((6-amino-2,4-dimethylpyridin-3-yl)methyl)-1-((3-chloroquinolin-6-yl)methyl)-3-(1-hydroxyethyl)-1H-pyrazole-4-carboxamide] | < 100 nM
21 | Cc1nc(N)ccc1CNC(=O)c1nnc(Cc2ccc3ncc(Cl)cc3c2)[nH]1 [Example 97, N-((6-amino-2-methylpyridin-3-yl)methyl)-5-((3-chloroquinolin-6-yl)methyl)-4H-1,2,4-triazole-3-carboxamide] | < 100 nM
22 | Cc1cc(N)nc(C)c1CNC(=O)c1nc(Cc2ccc3ncc(Cl)cc3c2)nn1C [Example 99, N-((6-amino-2,4-dimethylpyridin-3-yl)methyl)-3-((3-chloroquinolin-6-yl)methyl)-1-methyl-1H-1,2,4-triazole-5-carboxamide] | < 100 nM
23 | Cc1cc(N)nc(C)c1CNC(=O)c1nc(Br)n(Cc2ccc3ncc(Cl)cc3c2)n1 [Example 100, N-((6-amino-2,4-dimethylpyridin-3-yl)methyl)-5-bromo-1-((3-chloroquinolin-6-yl)methyl)-1H-1,2,4-triazole-3-carboxamide] | < 100 nM
24 | Cc1cc(N)nc(C)c1CNC(=O)c1nc(C#N)n(Cc2ccc3ncc(Cl)cc3c2)n1 [Example 101, N-((6-amino-2,4-dimethylpyridin-3-yl)methyl)-1-((3-chloroquinolin-6-yl)methyl)-5-cyano-1H-1,2,4-triazole-3-carboxamide] | > 10000 nM
25 | COC(=O)c1nc(C(=O)NCc2c(C)cc(N)nc2C)nn1Cc1ccc2ncc(Cl)cc2c1 [Example 102, methyl 3-(((6-amino-2,4-dimethylpyridin-3-yl)methyl)carbamoyl)-1-((3-chloroquinolin-6-yl)methyl)-1H-1,2,4-triazole-5-carboxylate] | > 10000 nM
26 | Cc1cc(N)nc(C)c1CNC(=O)c1c[nH]c(Cc2ccc3ncc(Cl)cc3c2)n1 [Example 103, N-((6-amino-2,4-dimethylpyridin-3-yl)methyl)-2-((3-chloroquinolin-6-yl)methyl)-1H-imidazole-4-carboxamide] | < 100 nM
27 | Cc1cc(N)nc(C)c1CNC(=O)c1cn(C)c(Cc2ccc3ncc(Cl)cc3c2)n1 [Example 104, N-((6-amino-2,4-dimethylpyridin-3-yl)methyl)-2-((3-chloroquinolin-6-yl)methyl)-1-methyl-1H-imidazole-4-carboxamide] | > 10000 nM
28 | Cc1cc(N)nc(C)c1CNC(=O)c1cnc(Cc2ccc3ncc(Cl)cc3c2)n1C [Example 105, N-((6-amino-2,4-dimethylpyridin-3-yl)methyl)-2-((3-chloroquinolin-6-yl)methyl)-1-methyl-1H-imidazole-5-carboxamide] | 1000 to 10000 nM
29 | Cc1cc(N)nc(C)c1CNC(=O)c1[nH]c(Cc2ccc3ncc(Cl)cc3c2)nc1Br [Example 106, N-((6-amino-2,4-dimethylpyridin-3-yl)methyl)-4-bromo-2-((3-chloroquinolin-6-yl)methyl)-1H-imidazole-5-carboxamide] | < 100 nM
30 | Cc1cc(N)nc(C)c1CNC(=O)c1cc(C#N)n(Cc2ccc3ncc(Cl)cc3c2)n1 [Example 108, N-((6-amino-2,4-dimethylpyridin-3-yl)methyl)-1-((3-chloroquinolin-6-yl)methyl)-5-cyano-1H-pyrazole-3-carboxamide] | 100 to 1000 nM
